This is an account of results in patent publication US8048926B2, “L-DOPA amide derivatives and uses thereof” (Yissum Research Development Company of the Hebrew …, priority 2003, dated 2011).

For data set [1] the following is noted: cited from earlier work.
For a further data set, the target named is T1, DOPA decarboxylase (Mus musculus, UniProt O88533).
T1 construct: using the mouse striatum as a source of the decarboxylase enzyme; from tissue; host or cells: mouse striatum
T1 sequence (O88533 1-480): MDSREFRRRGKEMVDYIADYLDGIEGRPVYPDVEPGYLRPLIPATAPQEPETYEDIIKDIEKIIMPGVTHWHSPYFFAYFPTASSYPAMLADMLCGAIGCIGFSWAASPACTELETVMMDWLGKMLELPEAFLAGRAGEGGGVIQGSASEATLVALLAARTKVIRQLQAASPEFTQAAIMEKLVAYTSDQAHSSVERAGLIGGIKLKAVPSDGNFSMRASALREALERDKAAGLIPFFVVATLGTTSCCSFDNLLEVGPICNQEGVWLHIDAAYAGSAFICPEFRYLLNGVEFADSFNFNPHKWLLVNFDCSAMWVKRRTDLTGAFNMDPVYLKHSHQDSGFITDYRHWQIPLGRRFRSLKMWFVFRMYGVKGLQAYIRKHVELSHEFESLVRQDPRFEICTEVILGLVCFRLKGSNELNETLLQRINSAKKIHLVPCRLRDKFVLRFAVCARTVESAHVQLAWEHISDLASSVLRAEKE
The experiment in a line: DOPA-decarboxylase assay (substrate test). On the set-up: activity of DOPA decarboxylase with the substance as substrate: unit not given here. The format is biochemical. As to conditions: mouse striatum enzyme. The protocol: DOPA-decarboxylase assay: As discussed hereinabove, one of the limitations associated with treatment with L-DOPA is its decarboxylation in the periphery by a DOPA decarboxylase, which reduces the amount the amount of L-DOPA that crosses the BBB.
The assay was carried out according to Hadjiconstantinou et al. [Aromatic L-amino acid decarboxylase activity of mouse striatum is modulated via dopamine receptors. J Neurochem. 1993 June; 60(6):2175-80], using the mouse striatum as a source of the decarboxylase enzyme.
The activity of the DOPA decarboxylase was thus tested with L-DOPA, DOPA-ethyl ester and LDA. L-DOPA ethyl ester (Compound 1), known as a much poorer substrate of the decarboxylase, served as a control was used as a control in these assays.

The conditions of data set [2]: cited from earlier work. The source holds these as a separate data set.
Data set [3] has as its system unilaterally 6-hydroxydopamine-lesioned male rats. The data set can be described thus: Rotation experiments (rotometer), LDA administered intraperitoneally. The format is in vivo, rat. The protocol:
(§1) The in vivo activity of LDA administered intravenously (iv) and intraperitoneally (ip) was evaluated using rotations experiments, conducted and based in accordance with published studies, as follows:
(§2) Briefly, Dunnet's experiment uses PD induced animal models which are treated with a unilateral lesion to the brain that effects their motorial behavior. In case of rats, they turn away from the side of the lesion when treated with an agent which increases the dopamine brain level. In order to quantify this effect, a device called rotometer is used, which records the circling behavior of the tested rat by counting the number of clockwise (CW) and counter clockwise (CCW) rotations the animal is turning in a hemisphere-shaped bowl which encourages a circling behavior.
(§3) Thus, twenty unilaterally 2,4,5-trihydroxyphenethylamine (6-hydroxydopamine)-lesioned male rats, weighing about 300 grams (obtained from Harlan, Rehovoth Israel) were treated with LDA and carbidopa, as is detailed hereinbelow. […] Pharmacol Toxicol. 93(2):66-70].
(§4) Treatment was performed by intravenously or intraperitoneally administering the LDA.
Intraperitoneal Experiments: Four rats were treated with 6-hydroxydopamine (8 μg/rat). Rats were then administered with carbidopa (4 mg/kg i.p), and 15 minutes thereafter with 15 mg/kg LDA, administered intraperitoneally. Immediately after LDA injection the rotometer was activated and the rats were monitored during 3 hours.

The test system is the same in data set [4]. The experiment in a line: Rotation experiments (rotometer), LDA administered intravenously. The data set is classed as in vivo, rat. As to conditions: for CCW (counter clockwise rotations) / CW (clockwise rotations) / CW − CCW: carbidopa 4 mg/kg ip 15 minutes before, one line per rat, preliminary. The protocol: as §1, §2, §3, §4
Intravenous (iv) Experiments: Rats were intravenously injected with 24 mg/kg or 40 mg/kg LDA. All rats received 4 mg/kg carbidopa, intraperitoneally, 15 minutes before LDA administration.

The mark [5] stands for this setting: LDA 15 mg/kg ip, carbidopa 4 mg/kg ip 15 minutes before, monitored during 3 hours, one line per rat, preliminary.

Molecules are shown by their SMILES. Several values for one entry are separate records, joined by “and”; a condition that tells them apart may be missing. Equal entries are not always repeated.

Regarding `CCOC(=O)[C@@H](N)Cc1ccc(O)c(O)c1` [Compound 1, L-DOPA ethyl ester], in data set [1], the water solubility result is “highly water-soluble”. Besides, the “activity of DOPA decarboxylase with the substance as substrate” value was determined as 227 at DOPA decarboxylase (Substrate 50 micromoles); 278 on DOPA decarboxylase (Substrate 100 micromoles); 328 on DOPA decarboxylase (Substrate 150 micromoles); 371 at DOPA decarboxylase (Substrate 250 micromoles); 357 at DOPA decarboxylase (Substrate 500 micromoles); 350 at DOPA decarboxylase (Substrate 1000 micromoles). Also, at DOPA decarboxylase, the “substrate of DOPA decarboxylase, in words” value is “poor substrate”. Moreover, the “hydrolysis to L-DOPA before reaching the brain” value in data set [2] (in vivo) was “fast hydrolysis”.
Turning to `N[C@@H](Cc1ccc(O)c(O)c1)C(=O)O` [L-DOPA, 3,4-dihydroxy-L-phenylalanine], in data set [1], the water solubility entry is given as “poor water solubility”. Besides, the “activity of DOPA decarboxylase with the substance as substrate” value was determined as 3241 on DOPA decarboxylase (Substrate 50 micromoles); 3839 on DOPA decarboxylase (Substrate 100 micromoles); 3828 on DOPA decarboxylase (Substrate 150 micromoles); 4332 at DOPA decarboxylase (Substrate 250 micromoles); 4612 at DOPA decarboxylase (Substrate 500 micromoles); 3933 at DOPA decarboxylase (Substrate 1000 micromoles). For the same compound, the “share of administered levodopa that enters the brain unaltered” value in data set [2] (peripheral administration) was 1-3%.
With `NC(=O)[C@@H](N)Cc1ccc(O)c(O)c1` [LDA + Carbidopa], in data set [3] (setting [5]), the “CCW (counter clockwise rotations)” value was 22 and 50 and 74 and 109; the “CW (clockwise rotations)” value was 56 and 361 and 123 and 111; the “CW − CCW” value was 34 and 311 and 49 and 2. In addition, in data set [4] (LDA 24 mg/kg iv), the “CCW (counter clockwise rotations)” value was 128 and 134; the “CW (clockwise rotations)” value was 686 and 629; the “CW − CCW” value is 558 and 495. Besides, in data set [4] (LDA 40 mg/kg iv), the “CCW (counter clockwise rotations)” value is 724 and 14 and 59; the “CW (clockwise rotations)” value was 1563 and 970 and 573; the “CW − CCW” value is 839 and 956 and 514.
Consider `NC(=O)C(N)Cc1ccc(O)c(O)c1` (stereo not drawn) [LDA, α-amino-3,4-dihydroxy-benzenepropanamide], for which the “improving the behavior of lesioned animals” value in data set [3] (LDA administered intraperitoneally) was “highly active”. For the same compound, the “substrate of DOPA decarboxylase, in words” value at DOPA decarboxylase is “not a substrate”. In addition, at DOPA decarboxylase (assay performed twice), the “activity of the enzyme (formation of dopamine) with the substance as substrate, in words” value is reported as “No activity of the enzyme was detected”. Moreover, the “effect of co-administration of carbidopa on the activity of LDA” value in data set [4] (increasing relative amount of carbidopa with respect to LDA) is “positively affect the activity of LDA”. In addition, the “duration of the rotation effect” value in data set [4] (intravenous LDA together with carbidopa, data not shown) is reported as “more than 2 hours”.
